Data: US11787839B2, “Targeting α2δ-1-bound glutamate receptors for treating diseases and disorders” (Board of Regents, The University of Texas System, priority 2017, dated 2023)

Legend:
[1] = biological target: T1, GluN1 and α2δ-1 in hypothalamic synaptosomes (Rattus norvegicus, UniProt P35439+Q00959+Q00960); test: Protein level analysis in hypothalamic synaptosomes (Ang II); format: cell-based
T1 construct: from tissue; host or cells: rat hypothalamic slices containing the PVN (Sprague-Dawley, WKY, SHR) and synaptosomes made from them
Experimental: Protein level analysis in hypothalamic synaptosomes: The hypothalamic tissues containing the PVN (pooled from 2 rats per sample) were homogenized using 10 volumes of ice-cold HEPES-buffered sucrose (0.32 mol/L sucrose, 1 mmol/L EGTA, and 4 mmol/L HEPES at pH 7.4) containing the protease inhibitor cocktail (Sigma-Aldrich). The homogenate was centrifuged at 2,000×g for 10 min at 4° C. to remove the nuclei and large debris. The supernatant was centrifuged at 20,000×g for 30 min to obtain the crude synaptosomal fraction. The synaptosomal pellet was lysed via hypo-osmotic shock in 9 volumes of ice-cold HEPES-buffer with the protease inhibitor cocktail for 30 min. The lysate was centrifuged at 25,000×g for 45 min at 4° C. to obtain the synaptosomal membrane fraction (Chen et al., 2018), which was then dissolved in sodium dodecyl sulfate sample buffer at a final concentration of 0.25 μg/μl for immunoblotting.
Western blotting was used to quantify GluN1 and α2δ-1 protein levels in the hypothalamic synaptosome. Fifteen micrograms of total proteins from each sample was loaded and separated by 4-15% Tris-HCl sodium dodecyl sulfate-polyacrylamide gel electrophoresis (#456-1086, Bio-Rad, Hercules, Calif.). The resolved proteins were transferred to a polyvinylidene difluoride membrane (Millipore). The membrane was treated with 5% nonfat dry milk in Tris-buffered saline (TBS) at 25° C. for 1 h and then incubated in TBS supplemented with 0.1% Triton X-100, 1% bovine serum albumin, and rabbit anti-GluN1 (#G8913, 1:100; Sigma, RRID: AB_259978), rabbit anti-α2δ-1 (#ACC-015, 1:500, Alomone, Jerusalem, Israel, RRID: AB_2039785), and mouse anti-PSD-95 (#75-348, 1:1,000, NeuroMab, Davis, Calif., RRID: AB_2315909) antibodies overnight at 4° C. The membrane was washed 3 times and then incubated with horseradish peroxidase-conjugated anti-rabbit IgG (1:5,000; Jackson ImmunoResearch, West Grove, Pa.) for 1 h at room temperature. The protein bands were detected with an enhanced chemiluminescence kit (Thermo Fisher Scientific, Waltham, Mass.), and protein band intensity was visualized and quantified using an Odyssey Fc Imager (LI-COR Biosciences, Lincoln, Nebr.). The protein levels of GluN1 and α2δ-1 were normalized by the PSD-95 protein band on the same gel.

anesthetized rats = test: PVN microinjection and recording of RSNA and ABP (Ang II); format: in vivo, rat
Experimental: PVN microinjection and recording of renal sympathetic nerve activity: Rats were anesthetized with a mixture of α-chloralose (60 mg/kg, i.p.) and urethane (800 mg/kg, i.p.). A retroperitoneal incision was made, and a branch of the left renal postganglionic sympathetic nerve was isolated under a surgical microscope. The renal sympathetic nerve was cut distally to ensure that afferent nerve activity was not recorded. The renal sympathetic nerve activity (RSNA), arterial blood pressure (ABP), and heart rate (HR) were recorded using a 1401-PLUS analog-to-digital converter and Spike2 system (Cambridge Electronic Design, Cambridge, UK). A microinjection pipette (tip diameter, 20-30 μm) was advanced into the PVN according to the following stereotactic coordinates: 1.6-2.0 mm caudal to the bregma, 0.5 mm lateral to the midline, and 7.0-7.5 mm ventral to the dura. The microinjection was done using a calibrated microinjection system (Nanoject II; Drummond Scientific) and monitored using a surgical microscope as described previously (Li and Pan, 2006, 2007; Qiao et al., 2017). Ang II (200 μmol/L, 50 nl) was microinjected into the PVN to observe the change in RSNA and ABP in the absence or presence of α2δ-1Tat peptide (100 μmol/L, 50 nl) or control peptide (100 μmol/L, 50 nl). The microinjections were separated by 10- to 15-min intervals to allow recovery of the response. To determine the location of the injection site and diffusion of the drugs in the PVN, 5% rhodamine-labeled fluorescent microspheres (0.04 μm; Molecular Probes) were included in the injection solution (Li and Pan, 2006, 2007; Qiao et al., 2017).

MCAO mice = test: MCAO ischemic stroke model: neurological deficit and infarct volume; format: in vivo, mouse; details: 90 min MCAO, 24 h reperfusion; gabapentin 100 mg/kg i.p. pre- or posttreatment; peptide 200 μg/kg i.p. twice
Experimental: Gabapentin was administered intraperitoneally (i.p.) either before or after initiating MCAO in separate groups of mice (pretreatment and posttreatment groups). […] Saline at the same volume as the gabapentin was administered i.p. in a vehicle group that also received MCAO.
It was then determined whether the α2δ-1-NMDAR interaction is involved in brain injury and neurological deficits caused by MCAO. In this protocol, MCAO-subjected mice with two injections of α2δ-1Tat peptide or control peptide (both 200 μg/kg, i.p.): one at 15 min before MCAO and another immediately before reperfusion. […] Furthermore, the brain infarct volume was much less in mice treated with α2δ-1Tat peptide than in mice treated with the control peptide (FIG. 22D).
Animal model. All procedures and protocols were approved by the Institutional Animal Care and Use Committee of The University of Texas MD Anderson Cancer Center. Adult male wild-type (WT) and conventional Cacna2d1 knockout (KO) mice (25-30 g, 8-10 weeks of age) were used in the study. MCAO was used in mice as an ischemic stroke model. The neurological deficits of mice subjected to MCAO were evaluated using a modified Longa test on a scale of 0-5. The brain coronal sections were stained using 1% 2,3,5-triphenyltetrazolium chloride (TTC), and the stained sections were captured as digital images and quantified for infarct volume.

morphine-treated rats = test: Opioid-induced hyperalgesia and analgesic tolerance in rats; details: co-treatment: gabapentin 100 mg/kg i.p. or peptide 1 μg intrathecal
[2] = Ang II 2 μmol/L for 60 min vs vehicle
[3] = peptide 1 μmol/L for 30 min, vs control peptide

T1 sequence (Q00959 20-1464 limits assumed, other chains not shown): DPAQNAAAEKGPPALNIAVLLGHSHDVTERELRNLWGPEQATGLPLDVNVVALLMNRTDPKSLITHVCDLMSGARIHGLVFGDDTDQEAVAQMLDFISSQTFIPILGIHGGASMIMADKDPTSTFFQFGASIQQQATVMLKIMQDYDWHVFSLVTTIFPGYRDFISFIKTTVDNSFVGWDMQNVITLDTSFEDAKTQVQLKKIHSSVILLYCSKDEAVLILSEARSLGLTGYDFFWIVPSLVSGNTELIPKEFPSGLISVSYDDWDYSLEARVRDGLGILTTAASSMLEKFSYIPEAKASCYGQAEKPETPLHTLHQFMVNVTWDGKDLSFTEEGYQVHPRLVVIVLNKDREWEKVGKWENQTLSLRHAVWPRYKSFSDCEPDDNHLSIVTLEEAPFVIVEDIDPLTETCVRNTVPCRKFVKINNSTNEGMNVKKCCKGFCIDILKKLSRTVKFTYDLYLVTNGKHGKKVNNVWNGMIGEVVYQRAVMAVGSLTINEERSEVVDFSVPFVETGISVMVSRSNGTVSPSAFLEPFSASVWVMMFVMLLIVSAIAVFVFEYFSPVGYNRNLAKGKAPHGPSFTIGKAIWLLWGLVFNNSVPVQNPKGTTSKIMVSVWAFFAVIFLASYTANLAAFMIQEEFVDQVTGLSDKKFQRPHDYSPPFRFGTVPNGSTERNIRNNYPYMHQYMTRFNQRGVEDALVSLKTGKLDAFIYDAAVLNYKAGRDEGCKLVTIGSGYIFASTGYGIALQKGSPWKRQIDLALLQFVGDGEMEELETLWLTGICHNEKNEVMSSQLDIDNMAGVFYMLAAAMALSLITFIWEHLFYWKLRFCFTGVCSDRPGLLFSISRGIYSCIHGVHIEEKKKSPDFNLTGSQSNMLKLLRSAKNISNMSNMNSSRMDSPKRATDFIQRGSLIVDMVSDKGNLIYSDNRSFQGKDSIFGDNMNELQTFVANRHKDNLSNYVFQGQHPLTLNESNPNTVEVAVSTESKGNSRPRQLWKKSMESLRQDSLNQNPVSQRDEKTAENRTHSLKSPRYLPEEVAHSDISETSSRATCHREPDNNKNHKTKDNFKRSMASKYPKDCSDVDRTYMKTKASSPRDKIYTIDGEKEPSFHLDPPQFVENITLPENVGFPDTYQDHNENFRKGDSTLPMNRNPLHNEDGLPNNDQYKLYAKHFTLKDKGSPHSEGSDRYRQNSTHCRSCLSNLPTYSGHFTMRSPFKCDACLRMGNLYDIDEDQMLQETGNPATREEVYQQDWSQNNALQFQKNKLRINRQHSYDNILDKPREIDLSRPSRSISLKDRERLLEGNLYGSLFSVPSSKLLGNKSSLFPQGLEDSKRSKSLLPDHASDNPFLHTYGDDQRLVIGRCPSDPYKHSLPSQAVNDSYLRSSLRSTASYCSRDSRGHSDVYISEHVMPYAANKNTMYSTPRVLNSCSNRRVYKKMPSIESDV
T1 sequence (Q00960 27-1482, other chains not shown): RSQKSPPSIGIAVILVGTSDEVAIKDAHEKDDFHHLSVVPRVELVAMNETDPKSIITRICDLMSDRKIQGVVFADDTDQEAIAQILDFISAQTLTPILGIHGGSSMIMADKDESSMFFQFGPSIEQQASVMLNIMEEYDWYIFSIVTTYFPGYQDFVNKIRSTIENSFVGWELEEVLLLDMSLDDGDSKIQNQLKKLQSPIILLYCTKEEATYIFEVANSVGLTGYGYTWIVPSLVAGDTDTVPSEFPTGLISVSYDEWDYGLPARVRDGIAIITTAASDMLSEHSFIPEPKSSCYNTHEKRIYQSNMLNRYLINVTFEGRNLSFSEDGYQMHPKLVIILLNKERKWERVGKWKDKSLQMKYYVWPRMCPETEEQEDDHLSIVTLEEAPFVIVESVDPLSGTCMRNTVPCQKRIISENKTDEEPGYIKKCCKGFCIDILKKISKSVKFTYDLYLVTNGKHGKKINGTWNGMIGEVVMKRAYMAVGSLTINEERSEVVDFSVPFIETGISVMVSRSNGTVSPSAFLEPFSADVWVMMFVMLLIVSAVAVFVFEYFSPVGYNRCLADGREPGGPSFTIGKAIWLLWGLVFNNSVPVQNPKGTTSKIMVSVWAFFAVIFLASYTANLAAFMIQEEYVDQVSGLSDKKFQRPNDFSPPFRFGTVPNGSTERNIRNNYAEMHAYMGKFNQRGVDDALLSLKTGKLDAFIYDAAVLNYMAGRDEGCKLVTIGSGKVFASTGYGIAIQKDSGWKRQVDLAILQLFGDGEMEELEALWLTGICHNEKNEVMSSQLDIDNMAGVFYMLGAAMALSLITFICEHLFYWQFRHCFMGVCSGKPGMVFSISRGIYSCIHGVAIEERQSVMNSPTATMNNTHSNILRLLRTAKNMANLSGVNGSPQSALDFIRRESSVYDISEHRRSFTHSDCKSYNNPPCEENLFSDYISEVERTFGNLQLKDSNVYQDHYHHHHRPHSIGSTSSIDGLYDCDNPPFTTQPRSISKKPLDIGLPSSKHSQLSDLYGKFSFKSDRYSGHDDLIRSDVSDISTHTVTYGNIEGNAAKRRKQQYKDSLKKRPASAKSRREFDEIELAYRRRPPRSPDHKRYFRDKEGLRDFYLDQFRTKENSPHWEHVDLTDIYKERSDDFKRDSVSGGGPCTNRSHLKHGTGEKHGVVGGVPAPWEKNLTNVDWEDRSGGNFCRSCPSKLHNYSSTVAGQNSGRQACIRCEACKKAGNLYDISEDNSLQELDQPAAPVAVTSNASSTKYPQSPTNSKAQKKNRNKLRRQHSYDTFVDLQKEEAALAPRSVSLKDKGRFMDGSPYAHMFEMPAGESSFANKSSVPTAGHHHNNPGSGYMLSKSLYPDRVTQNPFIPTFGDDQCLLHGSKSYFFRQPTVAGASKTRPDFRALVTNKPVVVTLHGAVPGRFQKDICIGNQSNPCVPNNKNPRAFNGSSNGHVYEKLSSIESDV

## Ang II: angiotensin II, obtained from Sigma (DRVYIHPF; Angiotensin-2; UniProt P01019 25-32, looked up)
[1]; [2]
  protein level of GluN1 in hypothalamic synaptosomes: significantly increased
  protein level of α2δ-1 in hypothalamic synaptosomes: significantly increased
Anesthetized rats; Ang II 200 μmol/L, 50 nl into the PVN
  RSNA and mean ABP: significantly increased

## YGRKKRRQRRRVSGLNPSLWSIFGLQFILLWLVSGSRHYLW (a2d1 peptide) [α2δ-1Tat peptide]
MCAO mice
  brain infarct volume: much less
  neurological deficit score: significantly reduced
[1]; [3]
  effect of Ang II on the protein level of GluN1: significantly attenuated
  effect of Ang II on the protein level of α2δ-1: significantly attenuated
Anesthetized rats; peptides 100 μmol/L, 50 nl
  ABP and RSNA responses to Ang II after prior peptide microinjection into the PVN: failed to significantly increase
morphine-treated rats
  reduction in baseline withdrawal thresholds induced by chronic morphine injections: completely blocked
  reduction in the analgesic effect of morphine: substantially attenuated

## NCC1(CC(=O)O)CCCCC1 [gabapentin]
MCAO mice
  brain infarct volume: much smaller
  neurological deficit score: significantly improved
morphine-treated rats
  reduction in baseline withdrawal thresholds induced by chronic morphine injections: completely blocked
  reduction in the analgesic effect of morphine: substantially attenuated
